According to patent publication US20260070945A1, “MACROCYCLIC IMMUNOMODULATORS” (Bristol-Myers Squibb Company, priority 2022, published 2026):
pIC50: −log10 of the molar value. Where a SMILES comes first, the peptide text is derived from it. Bridges are numbered along the chain shown (N, C = ends). [ ]: non-standard residue; d: D form. The star is where a group is joined. ξ: configuration not given here. Phe(4-COOH) = N[C@@H](Cc1ccc(C(=O)O)cc1)C(=O)O; Bip = N[C@@H](Cc1ccc(-c2ccccc2)cc1)C(=O)O; Phe(3-Me) = Cc1cccc(C[C@H](N)C(=O)O)c1; dIle(3ξ) = CCC(C)[C@@H](N)C(=O)O; Cha = N[C@@H](CC1CCCCC1)C(=O)O; Ile(3ξ) = CCC(C)[C@H](N)C(=O)O; Thr(3ξ) = CC(O)[C@H](N)C(=O)O; hSer = N[C@@H](CCO)C(=O)O; Carboxymethyl = O=C(O)C*; NMeA = CN[C@@H](C)C(=O)O; Orn = NCCC[C@H](N)C(=O)O; dNMeA = CN[C@H](C)C(=O)O; Aun = NCCCCCCCCCCC(=O)O; Dab = NCC[C@H](N)C(=O)O; AEEA = NCCOCCOCC(=O)O

What follows are molecules tested against T1, PD-1/PD-L1 interaction (PE-labeled human PD-L1-Ig binding to Jurkat cell line over-expressing human PD-1) (Homo sapiens, UniProt Q15116) (assay: Jurkat-PD-1 Cell Binding High-Content Screening Assay (CBA)). Conditions: Jurkat-hPD-1 cells, PE-labeled PD-L1-Ig 20 nM final; read-out: Jurkat HPD1 PDL1 IC50.
T1 construct: expressed in transfected cells; host or cells: Jurkat
T1 sequence (Q15116 25-288): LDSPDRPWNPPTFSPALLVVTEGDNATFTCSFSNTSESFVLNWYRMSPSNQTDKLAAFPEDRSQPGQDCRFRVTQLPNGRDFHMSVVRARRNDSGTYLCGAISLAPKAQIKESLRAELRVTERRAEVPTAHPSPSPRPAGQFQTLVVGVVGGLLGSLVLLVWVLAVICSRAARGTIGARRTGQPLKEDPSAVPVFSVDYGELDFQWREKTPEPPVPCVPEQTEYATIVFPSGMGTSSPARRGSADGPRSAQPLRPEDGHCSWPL
Outline: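 Binding of 20 nM (final) PE-tagged PD-L1-Ig to compound-pretreated Jurkat-hPD-1 cells was measured by high-content imaging after 1 h. Pretreatment ran 2 h at 37 °C in DMEM with 10% fetal calf serum.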

SMILES | pIC50
CC(C)C[C@@H]1NC(=O)[C@H](Cc2c[nH]c3ccccc23)NC(=O)[C@H](CC(=O)O)NC(=O)[C@H](Cc2ccc(C(=O)O)cc2)NC(=O)[C@H](Cc2ccc(OCC(=O)O)cc2)NC(=O)CSC[C@@H](C(=O)NCCOCCOCC(=O)NCCCCCCCCCCC(=O)O)NC(=O)[C@H](CCO)NC(=O)[C@H](C(C)C)NC(=O)[C@H](CC2CCCCC2)NC(=O)[C@H](CCN)NC(=O)[C@@H](CC(C)C)NC(=O)[C@H](C)N(C)C(=O)[C@H](CCC(N)=O)NC(=O)[C@H](Cc2ccc(-c3ccccc3)cc2)NC1=O [Example 2227] ({CH2CO}-Y(Carboxymethyl)[Phe(4-COOH)]DWL[Bip]Q[NMeA][dL][Dab][Cha]V[hSer]C[AEEA][Aun]-OH; thioether N-14) | 7.47
CC(C)C[C@@H]1NC(=O)[C@H](Cc2c[nH]c3ccccc23)NC(=O)[C@H](CC(=O)O)NC(=O)[C@H](Cc2ccc(C(=O)O)cc2)NC(=O)[C@H](Cc2ccc(OCC(=O)O)cc2)NC(=O)CSC[C@@H](C(=O)NCCOCCOCC(=O)NCCCCCCCCCCC(=O)O)NC(=O)[C@H](CO)NC(=O)[C@H](C(C)C)NC(=O)[C@H](CC2CCCCC2)NC(=O)[C@H](CCN)NC(=O)[C@@H](CC(C)C)NC(=O)[C@H](C)N(C)C(=O)[C@H](Cc2ccc(O)cc2)NC(=O)[C@H](Cc2ccc(-c3ccccc3)cc2)NC1=O [Example 2228] ({CH2CO}-Y(Carboxymethyl)[Phe(4-COOH)]DWL[Bip]Y[NMeA][dL][Dab][Cha]VSC[AEEA][Aun]-OH; thioether N-14) | 7.28
CC(=O)NCCCC[C@@H]1NC(=O)[C@H](Cc2ccc(-c3ccccc3)cc2)NC(=O)[C@H](CC(C)C)NC(=O)[C@H](Cc2c[nH]c3ccccc23)NC(=O)[C@H](CC(=O)O)NC(=O)[C@H](Cc2ccc(C(=O)O)cc2)NC(=O)[C@H](Cc2ccc(OCC(=O)O)cc2)NC(=O)CSC[C@@H](C(=O)NCCOCCOCC(=O)NCCCCCCCCCCC(=O)O)NC(=O)[C@H](CO)NC(=O)[C@H](C(C)C)NC(=O)[C@H](CC2CCCCC2)NC(=O)[C@H](CCN)NC(=O)[C@@H](CC(C)C)NC(=O)[C@H](C)N(C)C1=O [Example 2229] ({CH2CO}-Y(Carboxymethyl)[Phe(4-COOH)]DWL[Bip]K(Ac)[NMeA][dL][Dab][Cha]VSC[AEEA][Aun]-OH; thioether N-14) | 8.32
CC(=O)NCCCC[C@@H]1NC(=O)[C@H](C(C)C)NC(=O)[C@H](CC2CCCCC2)NC(=O)[C@H](CCN)NC(=O)[C@@H](CC(C)C)NC(=O)[C@H](C)N(C)C(=O)[C@H](CCC(N)=O)NC(=O)[C@H](Cc2ccc(-c3ccccc3)cc2)NC(=O)[C@H](CC(C)C)NC(=O)[C@H](Cc2cccc(C)c2)NC(=O)[C@H](CC(=O)O)NC(=O)[C@H](Cc2ccc(C(=O)O)cc2)NC(=O)[C@H](Cc2ccc(OCC(=O)O)cc2)NC(=O)CSC[C@@H](C(=O)NCCOCCOCC(=O)NCCCCCCCCCCC(=O)O)NC1=O [Example 2230] ({CH2CO}-Y(Carboxymethyl)[Phe(4-COOH)]D[Phe(3-Me)]L[Bip]Q[NMeA][dL][Dab][Cha]VK(Ac)C[AEEA][Aun]-OH; thioether N-14) | 7.89
Cc1cccc(C[C@@H]2NC(=O)[C@H](CC(=O)O)NC(=O)[C@H](Cc3ccc(C(=O)O)cc3)NC(=O)[C@H](Cc3ccc(OCC(=O)O)cc3)NC(=O)CSC[C@@H](C(=O)NCCOCCOCC(=O)NCCCCCCCCCCC(=O)O)NC(=O)[C@H](CCCCN)NC(=O)[C@H](C(C)C)NC(=O)[C@H](CC3CCCCC3)NC(=O)[C@H](CCN)NC(=O)[C@@H](CC(C)C)NC(=O)[C@H](C)N(C)C(=O)[C@H](C(C)C)NC(=O)[C@H](Cc3ccc(-c4ccccc4)cc3)NC(=O)[C@H](CC(C)C)NC2=O)c1 [Example 2231] ({CH2CO}-Y(Carboxymethyl)[Phe(4-COOH)]D[Phe(3-Me)]L[Bip]V[NMeA][dL][Dab][Cha]VKC[AEEA][Aun]-OH; thioether N-14) | 8.48
Cc1cccc(C[C@@H]2NC(=O)[C@H](CC(=O)O)NC(=O)[C@H](Cc3ccc(OCC(=O)O)cc3)NC(=O)[C@H](CCCNC(=N)N)NC(=O)CSC[C@@H](C(=O)N[C@@H](CCN)C(=O)NCCCCCCCCCCC(=O)O)NC(=O)[C@H](C(C)O)NC(=O)[C@H](C(C)C)NC(=O)[C@H](CC3CCCCC3)NC(=O)[C@H](CCN)NC(=O)[C@@H](CC(C)C)NC(=O)[C@H](C)N(C)C(=O)[C@H](CCC(N)=O)NC(=O)[C@H](Cc3ccc(-c4ccccc4)cc3)NC(=O)[C@H](C(C)C)NC2=O)c1 (stereo partly drawn) [Example 2233] ({CH2CO}-RY(Carboxymethyl)D[Phe(3-Me)]V[Bip]Q[NMeA][dL][Dab][Cha]V[Thr(3ξ)]C[Dab][Aun]-OH; thioether N-14) | 8.01
CC(C)C[C@@H]1NC(=O)[C@H](Cc2c[nH]c3ccccc23)NC(=O)[C@H](CC(=O)O)NC(=O)[C@H](Cc2ccc(C(=O)O)cc2)NC(=O)[C@H](Cc2ccc(OCC(=O)O)cc2)NC(=O)CSC[C@@H](C(=O)N[C@H](CC(N)=O)C(=O)NCCCCCCCCCCC(=O)O)NC(=O)[C@H](CO)NC(=O)[C@H](C(C)C)NC(=O)[C@H](CC2CCCCC2)NC(=O)[C@H](CCN)NC(=O)[C@@H](CC(C)C)NC(=O)[C@H](C)N(C)C(=O)[C@H](C(C)C)NC(=O)[C@H](Cc2ccc(-c3ccccc3)cc2)NC1=O [Example 2234] ({CH2CO}-Y(Carboxymethyl)[Phe(4-COOH)]DWL[Bip]V[NMeA][dL][Dab][Cha]VSC[dN][Aun]-OH; thioether N-14) | 7.87
Cc1cccc(C[C@@H]2NC(=O)[C@H](CC(=O)O)NC(=O)[C@H](Cc3ccc(C(=O)O)cc3)NC(=O)[C@H](Cc3ccc(OCC(=O)O)cc3)NC(=O)CSC[C@@H](C(=O)N[C@H](CC(N)=O)C(=O)NCCCCCCCCCCC(=O)O)NC(=O)[C@H](CO)NC(=O)[C@H](C(C)C)NC(=O)[C@H](CC3CCCCC3)NC(=O)[C@H](CCN)NC(=O)[C@@H](CC(C)C)NC(=O)[C@H](C)N(C)C(=O)[C@H](C(C)C)NC(=O)[C@H](Cc3ccc(-c4ccccc4)cc3)NC(=O)[C@H](CC(C)C)NC2=O)c1 [Example 2235] ({CH2CO}-Y(Carboxymethyl)[Phe(4-COOH)]D[Phe(3-Me)]L[Bip]V[NMeA][dL][Dab][Cha]VSC[dN][Aun]-OH; thioether N-14) | 7.70
CCC(C)[C@H]1NC(=O)[C@H](Cc2ccc(-c3ccccc3)cc2)NC(=O)[C@H](CC(C)C)NC(=O)[C@H](Cc2c[nH]c3ccccc23)NC(=O)[C@H](CC(=O)O)NC(=O)[C@H](Cc2ccc(C(=O)O)cc2)NC(=O)[C@H](Cc2ccc(OCC(=O)O)cc2)NC(=O)CSC[C@@H](C(=O)NCCCCCCCCCCC(=O)O)NC(=O)[C@H](CCCCN)NC(=O)[C@H](C(C)C)NC(=O)[C@H](CC2CCCCC2)NC(=O)[C@H](CCN)NC(=O)[C@@H](CC(C)C)NC(=O)[C@@H](C)N(C)C1=O (stereo partly drawn) [Example 2236] ({CH2CO}-Y(Carboxymethyl)[Phe(4-COOH)]DWL[Bip][dIle(3ξ)][dNMeA][dL][Dab][Cha]VKC[Aun]-OH; thioether N-14) | 7.88
CCC(C)[C@@H]1NC(=O)[C@H](Cc2ccc(-c3ccccc3)cc2)NC(=O)[C@H](CC(C)C)NC(=O)[C@H](Cc2c[nH]c3ccccc23)NC(=O)[C@H](CC(=O)O)NC(=O)[C@H](Cc2ccc(C(=O)O)cc2)NC(=O)[C@H](Cc2ccc(OCC(=O)O)cc2)NC(=O)CSC[C@@H](C(=O)NCCCCCCCCCCC(=O)O)NC(=O)[C@H](CCCNC(=N)N)NC(=O)[C@H](C(C)C)NC(=O)[C@H](CC2CCCCC2)NC(=O)[C@H](CCN)NC(=O)[C@@H](CC(C)C)NC(=O)[C@H](C)N(C)C1=O (stereo partly drawn) [Example 2237] ({CH2CO}-Y(Carboxymethyl)[Phe(4-COOH)]DWL[Bip][Ile(3ξ)][NMeA][dL][Dab][Cha]VRC[Aun]-OH; thioether N-14) | 7.82
CCC(C)[C@@H]1NC(=O)[C@H](Cc2ccc(-c3ccccc3)cc2)NC(=O)[C@H](C(C)C)NC(=O)[C@H](Cc2c[nH]c3ccccc23)NC(=O)[C@H](CC(=O)O)NC(=O)[C@H](Cc2ccc(OCC(=O)O)cc2)NC(=O)[C@H](Cc2ccc(OCC(=O)O)cc2)NC(=O)CSC[C@@H](C(=O)N[C@H](CC(N)=O)C(=O)NCCCCCCCCCCC(=O)O)NC(=O)[C@H](CCCCN)NC(=O)[C@H](C(C)C)NC(=O)[C@H](CC2CCCCC2)NC(=O)[C@H](CCN)NC(=O)[C@@H](CC(C)C)NC(=O)[C@H](C)N(C)C1=O (stereo partly drawn) [Example 2239] ({CH2CO}-Y(Carboxymethyl)Y(Carboxymethyl)DWV[Bip][Ile(3ξ)][NMeA][dL][Dab][Cha]VKC[dN][Aun]-OH; thioether N-14) | 8.22
Cc1cccc(C[C@@H]2NC(=O)[C@H](CC(=O)O)NC(=O)[C@H](Cc3ccc(OCC(=O)O)cc3)NC(=O)[C@H](C(C)O)NC(=O)CSC[C@@H](C(=O)N[C@H](CC(N)=O)C(=O)NCCCCCCCCCCC(=O)O)NC(=O)[C@H](CCCN)NC(=O)[C@H](C(C)C)NC(=O)[C@H](CC3CCCCC3)NC(=O)[C@H](CCN)NC(=O)[C@@H](CC(C)C)NC(=O)[C@H](C)N(C)C(=O)[C@H](Cc3ccc(O)cc3)NC(=O)[C@H](Cc3ccc(-c4ccccc4)cc3)NC(=O)[C@H](C(C)C)NC2=O)c1 (stereo partly drawn) [Example 2241] ({CH2CO}-[Thr(3ξ)]Y(Carboxymethyl)D[Phe(3-Me)]V[Bip]Y[NMeA][dL][Dab][Cha]V[Orn]C[dN][Aun]-OH; thioether N-14) | 7.99
CC(C)C[C@H]1NC(=O)[C@H](C)N(C)C(=O)[C@H](Cc2ccc(O)cc2)NC(=O)[C@H](Cc2ccc(-c3ccccc3)cc2)NC(=O)[C@H](C(C)C)NC(=O)[C@H](Cc2c[nH]c3ccccc23)NC(=O)[C@H](CC(=O)O)NC(=O)[C@H](Cc2ccc(OCC(=O)O)cc2)NC(=O)[C@H](C(C)O)NC(=O)CSC[C@@H](C(=O)N[C@H](CC(N)=O)C(=O)NCCCCCCCCCCC(=O)O)NC(=O)[C@H](CCCN)NC(=O)[C@H](C(C)C)NC(=O)[C@H](CC2CCCCC2)NC(=O)[C@H](CCN)NC1=O (stereo partly drawn) [Example 2242] ({CH2CO}-[Thr(3ξ)]Y(Carboxymethyl)DWV[Bip]Y[NMeA][dL][Dab][Cha]V[Orn]C[dN][Aun]-OH; thioether N-14) | 6.94
